This note sets out measurements from patent US9808434B2, “Compound for treating cancer and diabetes” (CITY OF HOPE, priority 2011, dated 2017).

The structures appear in SMILES notation.

Test [1] relates to Hs600T. Briefly: MTT assay, Hs600T. The test is classed as cell-based. The settings on record: Homo sapiens. The method, then:
(§1) Cell density measurements were performed using a hemocytometer to count reproductive cells resistant to staining with trypan blue. Approximately 20,000 cells were plated into each well of 96-well flat-bottomed micro-titer plates. After 12 h or 24 h incubation at 37° C., medium containing either COH-SR4 (ranging 0-200 μM) or elesclomol (ranging 0-20 μM) were added to the cells. After 24 h, 48 h or 96 h incubation, 20 μL of 5 mg/mL MTT were introduced to each well and incubated for 2 h. The plates were centrifuged and medium was decanted. Cells were subsequently dissolved in 100 μl DMSO with gentle shaking for 2 h at room temperature, followed by measurement of OD570 (91).
Cells of highly aggressive mouse melanoma cell line B16-F0 or human melanoma cell line Hs600T were incubated with various doses of COH-SR4 (1, 2.5, 5, 10, 25, 50, or 100 μM). The cell viabilities after treatment of 48 hours and 96 hours were measured and summarized in FIGS. 54A and 55A, respectively. […] Data were presented as mean±Standard Deviation from two separate determinations with eight replicate each (n=16).

In the next test the test system is melanoma cells. Put plainly: MTT assay, melanoma cell lines of various mutational status. The test is classed as cell-based. The settings on record: 48 h, regardless of mutational status; read-out: IC50 values across melanoma cell lines. The method, then:
as §1

The test system of test [2] is Hs600T. Put plainly: Colony formation assay, Hs600T. The settings on record: 10 μM, vs untreated control. The test is classed as cell-based, human. On the procedure: Cell survival was evaluated using a standard colony-forming assay. […] After 7 or 10 days, adherent colonies were fixed, stained with 0.5% methylene blue for 30 min and colonies were counted using the Innotech Alpha Imager HP (91).

A further test relates to A375. Briefly: Colony formation assay, A375. The test is classed as cell-based, human. The settings on record: 5 μM. On the procedure: Cell survival was evaluated using a standard colony-forming assay. In total, 1×10^5 cells/mL were incubated with COH-SR4 (1.5 μM or 5 μM) or elesclomol (5 μM) for 24 h, and aliquots of 50 or 100 μL were added to 60 mm size petri dishes, containing 4 mL culture medium. After 7 or 10 days, adherent colonies were fixed, stained with 0.5% methylene blue for 30 min and colonies were counted using the Innotech Alpha Imager HP (91).

In a further test the test system is H1417 cells. Put plainly: MTT assay, H1417. The test is classed as cell-based. To be noted: Homo sapiens, NCI-H1417, 48 h. The method, then:
as §1
The effect of COH-SR4 was first examined in a NCI panel of cancer cell lines, the results of which indicated good activity of COH-SR4 towards lung cancer (FIG. 78A). […] Values are presented as mean±SD from two separate determinations with eight replicates each (n=16) (FIG. 78B). […] Standard colony-forming assay was performed and the colonies were counted using Innotech Alpha Imager HP. […] TUNEL assay was performed using Promega fluorescence detection kit and examined using Zeiss LSM 510 META laser-scanning fluorescence microscope with filters 520 and 620 nm. […]

Another test deals with AMPK, ACC, Raptor, TSC2. Briefly: AMPK-mTOR signaling in lung cancer cells, Western-blot. The test is classed as cell-based, human. On the procedure: Cell or tissue proteins were extracted with cell lysis buffer (Cell Signaling Technology) and protein concentration was determined using the DC Protein Assay kit (Bio-Rad, Hercules, Calif., USA). Equal amount of proteins (˜40 μg) were loaded onto 4-15% Criterion TGX gels (Bio-Rad, Hercules, Calif.), resolved by SDS-PAGE electrophoresis, and then transferred onto nitrocellulose membranes for immunoblotting. Membranes were blocked with 5% skimmed milk in Tris-buffered saline containing 0.05% Tween 20 before incubation overnight at 4° C. with desired primary antibodies. Immuno-reactive proteins were visualized by peroxidase-labeled secondary antibodies and ECL system (Western Lightning Chemiluminescence Reagent, Perkin-Elmer, Mass., USA). Equal loading of proteins was confirmed by stripping and re-probing the membranes with either β-actin or GAPDH antibodies. Band intensities were quantified using a densitometer (Quantity One, Bio-Rad, Hercules, Calif.).
AMPK was knocked down by siRNA and assessed the impact on COH-SR4-induced cytotoxicity. […] Thus, the in-vitro analyses of critical signaling proteins of cell proliferation further supported the anti-cancer effects of COH-SR4 in lung cancer cells.

With `O=C(Nc1cc(Cl)cc(Cl)c1)Nc1cc(Cl)cc(Cl)c1` [COH-SR4, 1,3-bis(3,5-dichlorophenyl) urea], the IC50 with Hs600T [1] (48 h) was around 10 µM; with Hs600T [1] (96 h) it was around 6 µM; in the test with melanoma cells it was 1.2 to 4.8 µM; with H1417 cells, 1200 ± 200 nM. Also, the colony formation with Hs600T [2] turned out to be 48±5%; in the test with A375 it was 42±6%. The “phosphorylation of AMPK, ACC, Raptor, TSC2” value with AMPK, ACC, Raptor, TSC2 is “increased phosphorylation of AMPK (pAMPK)”.
